Where two headings read alike, the source gives them in different places.
Assays:
[1] = system: ADDP (subclone of A2780) versus A2780 ovarian cancer cell lines; assay: Resistance factor, GI50 in ADDP/GI50 in A2780; assay type: cell-based
HT29 colon cancer cells = system: HT29 colon cancer cells; parameters: method as in earlier work; conditions: MTT, same method, taken from the literature; ref [18],[46],[47]; read-out: GI50 ± SEM, HT29; cited from earlier work
U87 glioblastoma cells = system: U87 glioblastoma cells; parameters: method as in earlier work; conditions: MTT, same method, taken from the literature; ref [18],[46],[47]; read-out: GI50 ± SEM, U87; cited from earlier work
[2] = system: MCF-7 breast cancer cells; parameters: method as in earlier work; conditions: MTT, same method, taken from the literature; ref [18],[46],[47]; read-out: GI50 ± SEM, MCF-7; cited from earlier work
[3] = system: A2780 ovarian cancer cells; parameters: method as in earlier work; conditions: MTT, same method, taken from the literature; ref [18],[46],[47]; read-out: GI50 ± SEM, A2780; cited from earlier work
H460 lung cancer cells = system: H460 lung cancer cells; parameters: method as in earlier work; conditions: MTT, same method, taken from the literature; ref [18],[46],[47]; read-out: GI50 ± SEM, H460; cited from earlier work
A431 skin cancer cells = system: A431 skin cancer cells; parameters: method as in earlier work; conditions: MTT, same method, taken from the literature; ref [18],[46],[47]; read-out: GI50 ± SEM, A431; cited from earlier work
[4] = system: Du145 prostate cancer cells; parameters: method as in earlier work; conditions: MTT, same method, taken from the literature; ref [18],[46],[47]; read-out: GI50 ± SEM, Du145; cited from earlier work
[5] = system: BE2-C neuroblastoma cells; parameters: method as in earlier work; conditions: MTT, same method, taken from the literature; ref [18],[46],[47]; read-out: GI50 ± SEM, BE2-C; cited from earlier work
SJ-G2 glioblastoma cells = system: SJ-G2 glioblastoma cells; parameters: method as in earlier work; conditions: MTT, same method, taken from the literature; ref [18],[46],[47]; read-out: GI50 ± SEM, SJ-G2; cited from earlier work
[6] = system: MIA pancreas cancer cells; parameters: method as in earlier work; conditions: MTT, same method, taken from the literature; ref [18],[46],[47]; read-out: GI50 ± SEM, MIA; cited from earlier work
[7] = system: non-cancerous MCF10A breast cell line; parameters: method as in earlier work; conditions: MTT, same method, taken from the literature; ref [18],[46],[47]; read-out: GI50 ± SEM, MCF10A; cited from earlier work
[8] = system: cisplatin-resistant ADDP ovarian (subclone of A2780) cancer cells; parameters: method as in earlier work; conditions: MTT, same method, taken from the literature; ref [18],[46],[47]; read-out: GI50 ± SEM, ADDP; cited from earlier work

Compound | Resistance factor (RF) [1] | GI50 (HT29 colon cancer cells) | GI50 (U87 glioblastoma cells) | GI50 [2] | GI50 [3] | GI50 (H460 lung cancer cells) | GI50 (A431 skin cancer cells) | GI50 [4] | GI50 [5] | GI50 (SJ-G2 glioblastoma cells) | GI50 [6] | GI50 [7] | GI50 [8] | Resistance factor (RF) ([1]; listed as cisplatin)
Cc1c(C)c2ccc[n+]3c2c2c1ccc[n+]2[Pt-2]31[NH2+][C@H]2CCCC[C@@H]2[NH2+]1.[Cl-].[Cl-] [56MESS(II)] | 0.692 | 15 ± 6.2 nM | 76 ± 8.7 nM | 33 ± 12 nM | 39 ± 7.7 nM | 28 ± 4.7 nM | 36 ± 11 nM | 10 ± 1.3 nM | 86 ± 3 nM | 150 ± 6.7 nM | 22 ± 0.88 nM | 25 ± 10 nM | 27 ± 4.1 nM | 
Cc1c(C)c2ccc[n+]3c2c2c1ccc[n+]2[Pt-2]31([OH])([OH])[NH2+][C@H]2CCCC[C@@H]2[NH2+]1.O=[N+]([O-])[O-].O=[N+]([O-])[O-] [56MESS(IV)] | 3.036 | 36 ± 7.1 nM | 190 ± 23 nM | 480 ± 140 nM | 56 ± 7.1 nM | 190 ± 150 nM | 120 ± 22 nM | 15 ± 2.6 nM | 240 ± 22 nM | 210 ± 45 nM | 43 ± 2.5 nM | 61 ± 7.3 nM | 170 ± 120 nM | 
N.N.O=C([O-])C1(C(=O)[O-])CCC1.[Pt+2] [Carboplatin, carboplatin] |  | > 50000 nM | > 50000 nM | > 50000 nM | 9200 ± 2900 nM | 14000 ± 1000 nM | 24300 ± 2200 nM | 14700 ± 1200 nM | 18700 ± 1200 nM | 5700 ± 200 nM | > 50000 nM | > 50000 nM | > 50000 nM | 
N.N.[Cl][Pt][Cl] [Cisplatin, cisplatin] | 28.00 | 11300 ± 1900 nM | 3800 ± 1100 nM | 6500 ± 800 nM | 1000 ± 100 nM | 900 ± 200 nM | 2400 ± 300 nM | 1200 ± 100 nM | 1900 ± 200 nM | 400 ± 100 nM | 7500 ± 1300 nM | 5200 ± 520 nM | 28000 ± 1700 nM | 28
O=C1[O][Pt]2([NH][C@@H]3CCCC[C@H]3[NH]2)[O]C1=O [Oxaliplatin, oxaliplatin] | 5.138 | 900 ± 200 nM | 1800 ± 200 nM | 500 ± 100 nM | 160 nM | 1600 ± 100 nM | 4100 ± 500 nM | 2900 ± 400 nM | 900 ± 200 nM | 3000 ± 1200 nM | 900 ± 200 nM |  | 822 ± 130 nM | 
[Cl-].[Cl-].c1cc2ccc3ccc[n+]4c3c2[n+](c1)[Pt-2]41[NH2+][C@H]2CCCC[C@@H]2[NH2+]1 [PHENSS(II)] | 0.793 | 87 ± 27 nM | 1200 ± 340 nM | 250 ± 41 nM | 290 ± 37 nM | 300 ± 32 nM | 340 ± 100 nM | 110 ± 27 nM | 390 ± 60 nM | 440 ± 55 nM | 240 ± 22 nM | 240 ± 60 nM | 230 ± 49 nM | 
O=[N+]([O-])[O-].O=[N+]([O-])[O-].[OH][Pt-2]12([OH])([NH2+][C@H]3CCCC[C@@H]3[NH2+]1)[n+]1cccc3ccc4ccc[n+]2c4c31 [PHENSS(IV)] | 1.625 | 710 ± 300 nM | 4900 ± 610 nM | 16000 ± 4500 nM | 800 ± 84 nM | 1700 ± 200 nM | 4300 ± 530 nM | 310 ± 92 nM | 3000 ± 530 nM | 1700 ± 350 nM | 3400 ± 2200 nM | 1700 ± 200 nM | 1300 ± 350 nM | 
